Measurements from patent US20220387468A1, “METHODS OF TREATING CANCER” (ASTRAZENECA AB, priority 2019, published 2022).

Columns and labels:
[1] = system: pancreatic cancer cell lines (SLFN11-deficient or SLFN11-proficient); assay: Pancreatic cell line panel, 6x6 concentration matrix, live-dead SyTox green assay, Loewe synergy; format: cell-based
Source text: SLFN11 RNA seq data (log 2 RPKM values) were downloaded from cancer cell line encyclopedia (CCLE) (Barretina J. et al., Nature, 2012; 483: 603-607) and drug response data (log(IC50) and area under the dose-response curve (AUCs)) from drug sensitivity in cancer database (Yang W et al., Nucleic Acids Res, 2013; 41: […]-61). Cell lines with CCLE RNA seq log 2 RPKM values below 1 were defined as SLFN11-deficient and cell lines with log 2 RPKM values above 1 as SLFN11-proficient. Nineteen pancreatic cell lines in 384-well plates were dosed with increasing concentrations of adavosertib and gemcitabine in a 6×6 concentration matrix using an Echo 555 (LabCyte). The dose range was 0-3 μM for adavosertib, and 0-0.3 μM for gemcitabine; in both cases dilutions 1:3 from the top dose were performed. Five days following continuous treatment, cell viability was determined by live-dead SyTox green assay (Life Technologies, Carlsbad, Calif., USA). Synergy was analyzed in Genedata screener software using the Loewe dose-additivity model as described above.

[2] = system: DU145 isogenic cells (WT and SLFN11 KO); format: cell-based; settings: SLFN11 KO cells compared to wild type DU145 cells; 72 hours; FIG. 2D
Procedure: For cell survival experiment in 96 well plate, cells were seeded in 96-well plates, following compound dosing using a HP dispenser. 72 hours later, cell viability was determined with end-point CellTiter-Glo luminescent assays (Promega). Percentage growth was calculated using the equation (T−T0)/(C−T0)×100, where T=compound-treated cells; T0=cells at 0 h time point and C=control cells. Dose response curves were plotted in GraphPad prism.

Question: How did the “response (log IC50) of SLFN11-deficient versus SLFN11-proficient cell lines” value ([1]; adavosertib monotherapy, FIG. 3B) turn out when C=CCn1c(=O)c2cnc(Nc3ccc(N4CCN(C)CC4)cc3)nc2n1-c1cccc(C(C)(C)O)n1 [adavosertib] was run?
Answer: Its value is “same response”.

Question: For CC[C@@]1(O)C(=O)OCc2c1cc1n(c2=O)Cc2cc3ccccc3nc2-1 [camptothecin], which “sensitivity to DDA monotherapy (survival curves)” value (“sensitivity to DDA monotherapy” for short) [2] is on record?
Answer: Its value is “resistant”.

Question: For N.N.[Cl][Pt][Cl] [cisplatin], which “sensitivity to DDA monotherapy” value [2] is on record?
Answer: Its value is “resistant”.

Question: With COc1cc([C@@H]2c3cc4c(cc3[C@@H](O[C@@H]3O[C@@H]5CO[C@@H](C)O[C@H]5[C@H](O)[C@H]3O)[C@H]3COC(=O)[C@H]23)OCO4)cc(OC)c1O [etoposide] as the compound, how does the “sensitivity to DDA monotherapy” value [2] read?
Answer: Its value is “resistant”.

Question: How did the “sensitivity (log IC50) of SLFN11-deficient versus SLFN11-proficient cell lines, fold less sensitive” value ([1]; gemcitabine monotherapy, on average, FIG. 3A) turn out when Nc1ccn([C@@H]2O[C@H](CO)[C@@H](O)C2(F)F)c(=O)n1 [gemcitabine] was run?
Answer: Its value is 100 times.

Question: And the “sensitivity to DDA monotherapy” value [2]?
Answer: Its value is “resistant”.

Question: For NC(=O)NO [hydroxyurea], which “sensitivity to DDA monotherapy” value [2] is on record?
Answer: Its value is “resistant”.
